Assay: mn = molality of the nth substance listed, in mol/kg
Conditions: 100 kPa, Liquid; for speed of sound: Frequency=3 MHz, Sing-around technique in a fixed-path interferometer; for mass density: Vibrating tube method

N.O=P(O)(O)O [ammonium dihydrogen phosphate] + O
Conditions	mass density, 288.15 K [kg/m3]	mass density, 298.15 K [kg/m3]	mass density, 308.15 K [kg/m3]	mass density, 318.15 K [kg/m3]	speed of sound, 288.15 K [m/s]	speed of sound, 298.15 K [m/s]	speed of sound, 308.15 K [m/s]	speed of sound, 318.15 K [m/s]
m1 = 0.5	1029.89	1026.93	1023.68	1019.89	1507.2	1534.7	1555.7	1570.8
m1 = 1	1057.21	1054.11	1050.64	1046.76	1544.3	1569.5	1588.6	1602.3
m1 = 1.5	1082.49	1079.39	1075.63	1071.69	1579.5	1602.2	1619.5	1631.7
m1 = 2	1105.65	1102.5	1098.68	1094.7	1613.6	1634.1	1649.6	1660.4
